{"source": "paper PMC12088962", "about": "“Design, synthesis, and biological investigation of new thiazole-based derivatives as multi-targeted inhibitors endowed with antiproliferative, antioxidant, and antibacterial properties” (Frontiers in Chemistry, 2025)", "key": {"HT-29 cells": {"tested_on": "HT-29 cells", "assay": "Antiproliferative MTT assay"}, "MCF-10A cells": {"tested_on": "MCF-10A cells", "conditions": "50 µM"}, "Panc-1 cells": {"tested_on": "Panc-1 cells", "assay": "Antiproliferative MTT assay"}, "MCF-7 cells": {"tested_on": "MCF-7 cells", "assay": "Antiproliferative MTT assay"}, "A-549 cells": {"tested_on": "A-549 cells", "assay": "Antiproliferative MTT assay"}, "[1]": {"tested_on": "four cancer cell lines (A-549, MCF-7, Panc-1, HT-29)", "assay": "Antiproliferative MTT assay, average over four cancer cell lines", "conditions": "for GI50: read-out: Antiproliferative activity, Average (GI50)"}, "E. coli DNA gyrase": {"biological_target": "E. coli DNA gyrase (Escherichia coli, UniProt P0AES6)", "assay": "DNA gyrase supercoiling assay", "assay_type": "biochemical", "protocol": "4.2.3. Determination of Inhibitory Activities on E. coli DNA Gyrase.\nAll the final compounds were tested for E. coli DNA gyrase inhibitory activity in a supercoiling assay. Activities were determined on streptavidin -coated 96-well microtiter plates from Thermo scientific Pierce. First, the plates were rehydrated with buffer (20 mM Tris -HCl with pH 7.6, 0.01% […]\nimmobilized. After washing off the unbound oligonucleotide, the enzyme test was performed. The reaction volume of 30 μL in buffer (35 mM Tris-HCl with pH 7.5, 4 mM MgCl 2, 24 mM KCl, 2 […]\n1.5 U of DNA gyrase from E. coli or S. aureus, 0.75 μg of relaxed pNO1 plasmid, and 3 μL solution of the inhibitor in 1 0% DMSO and 0.008% Tween 20. Reaction solutions were incubated at 37 °C […]\nfor 30 min. After that, the TF buffer (50 mM NaOAc with pH 5.0, 50 mM NaCl and 50 mM MgCl2) was added to terminate the enzymatic reaction. After additional incubation for 30 min at rt, during which biotin-oligonucleotide-plasmid triplex was formed, the unbound plasmid was washed off using TF buffer and SybrGOLD in T10 buffer (10 mM Tris HCl wit h pH 8.0 and 1 mM EDTA) was added. The fluorescence was measured with a microplate reader (BioTek Synergy H4, excitation: 485 nm, emission: 535 nm). […]\ntested compounds. GraphPad Prism software was used to calculate the IC50 values. The result is given as the average value of three independent measurements. […]"}, "[2]": {"biological_target": "S. aureus topoisomerase IV", "conditions": "read-out: IC50 for S. aureus topoisomerase IV (internal standard value); value stated in the supplementary method, no reference given; cited from earlier work"}, "B. subtilis": {"tested_on": "B. subtilis", "assay": "MIC by twofold serial dilution", "assay_type": "cell-based, Bacillus subtilis (ATCC 6051)", "protocol": "(§1) The antibacterial efficacy of compounds 11b, 11e, and 12b was evaluated against Gram-positive bacteria (S. aureus and B. subtilis) and Gram-negative bacteria (E. coli and P. aeruginosa). Table 5 presents the MICs (nM) of these compounds against the evaluated bacteria, utilizing ciprofloxacin as the reference drug, determined through a twofold serial dilution approach on a 96-well microtiter plate ([Frejat F. O. et al., 2022]).\nas §1, with “The” for “Table 5 presents the”, “the tested” for “these”, “bacteria were” for “bacteria, utilizing ciprofloxacin as the reference drug,”, “2022]). See Appendix A for more details.” for “2022]).”\n(§2) 4.2. Antimicrobial activity\n(§3) 4.2.1. Organisms and culture conditions […]\n(§4) 4.2.2. Minimum inhibitory concentration assay\n(§5) In 96-well microtiter plates and […] of fresh bacterial culture of a single McFarland unit overnight, a double serial dilution of each compound […] in sterile standard saline were prepared to every single source well. Ciprofloxacin antibiotic (5 mg / mL-1) and normal saline were included as standard reference in each assay. The plates were incubated at 37 0C overnight.\n(§6) As an indicator of bacterial growth, […] of p -iodonitrotetrazolium violet (INT) was added to each well and incubated at 37 0C for 30 min. MIC values are recorded as the lowest concentration […]\n(§7) tetrazolidium salt acts as an electron accepter and is reduced to a red colored formazan product by biological activity organisms. Where bacterial growth was inhibited, the solution in the well remained clear after incubation with INT. […]"}, "EGFR": {"biological_target": "EGFR (Homo sapiens, UniProt P00533)", "sequence (P00533 669-1210)": "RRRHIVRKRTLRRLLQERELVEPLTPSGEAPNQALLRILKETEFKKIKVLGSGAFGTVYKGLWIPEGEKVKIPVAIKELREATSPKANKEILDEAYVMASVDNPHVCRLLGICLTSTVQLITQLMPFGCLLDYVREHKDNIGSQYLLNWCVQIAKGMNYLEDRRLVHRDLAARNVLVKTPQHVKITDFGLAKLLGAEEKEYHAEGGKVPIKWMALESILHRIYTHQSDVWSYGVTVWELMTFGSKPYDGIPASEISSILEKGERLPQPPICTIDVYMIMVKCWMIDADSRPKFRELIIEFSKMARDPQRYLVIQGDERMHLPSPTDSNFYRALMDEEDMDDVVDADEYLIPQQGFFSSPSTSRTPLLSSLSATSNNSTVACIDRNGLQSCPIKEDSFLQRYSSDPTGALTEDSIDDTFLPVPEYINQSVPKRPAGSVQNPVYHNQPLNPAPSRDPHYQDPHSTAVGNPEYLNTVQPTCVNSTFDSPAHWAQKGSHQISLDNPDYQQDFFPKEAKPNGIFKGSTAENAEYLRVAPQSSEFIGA", "assay": "EGFR-TK inhibitory assay"}, "E. coli": {"tested_on": "E. coli", "assay": "MIC by twofold serial dilution", "assay_type": "cell-based, Escherichia coli (ATCC 11775)", "conditions": "Escherichia coli; Gram-negative; read-out: Minimum inhibitory concentration (MIC), E. coli", "protocol": "as §1\nas §1, with “The” for “Table 5 presents the”, “the tested” for “these”, “bacteria were” for “bacteria, utilizing ciprofloxacin as the reference drug,”, “2022]). See Appendix A for more details.” for “2022]).”\nas §2, §3, §4, §5, §6, §7"}, "P. aeruginosa": {"tested_on": "P. aeruginosa", "assay": "MIC by twofold serial dilution", "assay_type": "cell-based, Pseudomonas aeuroginosa (ATCC 10145)", "conditions": "Pseudomonas aeruginosa; Gram-negative; read-out: Minimum inhibitory concentration (MIC), P. aeruginosa", "protocol": "as §1\nas §1, with “The” for “Table 5 presents the”, “the tested” for “these”, “bacteria were” for “bacteria, utilizing ciprofloxacin as the reference drug,”, “2022]). See Appendix A for more details.” for “2022]).”\nas §2, §3, §4, §5, §6, §7"}, "VEGFR-2": {"biological_target": "VEGFR-2 (Homo sapiens, UniProt P35968)", "sequence (P35968 20-1356)": "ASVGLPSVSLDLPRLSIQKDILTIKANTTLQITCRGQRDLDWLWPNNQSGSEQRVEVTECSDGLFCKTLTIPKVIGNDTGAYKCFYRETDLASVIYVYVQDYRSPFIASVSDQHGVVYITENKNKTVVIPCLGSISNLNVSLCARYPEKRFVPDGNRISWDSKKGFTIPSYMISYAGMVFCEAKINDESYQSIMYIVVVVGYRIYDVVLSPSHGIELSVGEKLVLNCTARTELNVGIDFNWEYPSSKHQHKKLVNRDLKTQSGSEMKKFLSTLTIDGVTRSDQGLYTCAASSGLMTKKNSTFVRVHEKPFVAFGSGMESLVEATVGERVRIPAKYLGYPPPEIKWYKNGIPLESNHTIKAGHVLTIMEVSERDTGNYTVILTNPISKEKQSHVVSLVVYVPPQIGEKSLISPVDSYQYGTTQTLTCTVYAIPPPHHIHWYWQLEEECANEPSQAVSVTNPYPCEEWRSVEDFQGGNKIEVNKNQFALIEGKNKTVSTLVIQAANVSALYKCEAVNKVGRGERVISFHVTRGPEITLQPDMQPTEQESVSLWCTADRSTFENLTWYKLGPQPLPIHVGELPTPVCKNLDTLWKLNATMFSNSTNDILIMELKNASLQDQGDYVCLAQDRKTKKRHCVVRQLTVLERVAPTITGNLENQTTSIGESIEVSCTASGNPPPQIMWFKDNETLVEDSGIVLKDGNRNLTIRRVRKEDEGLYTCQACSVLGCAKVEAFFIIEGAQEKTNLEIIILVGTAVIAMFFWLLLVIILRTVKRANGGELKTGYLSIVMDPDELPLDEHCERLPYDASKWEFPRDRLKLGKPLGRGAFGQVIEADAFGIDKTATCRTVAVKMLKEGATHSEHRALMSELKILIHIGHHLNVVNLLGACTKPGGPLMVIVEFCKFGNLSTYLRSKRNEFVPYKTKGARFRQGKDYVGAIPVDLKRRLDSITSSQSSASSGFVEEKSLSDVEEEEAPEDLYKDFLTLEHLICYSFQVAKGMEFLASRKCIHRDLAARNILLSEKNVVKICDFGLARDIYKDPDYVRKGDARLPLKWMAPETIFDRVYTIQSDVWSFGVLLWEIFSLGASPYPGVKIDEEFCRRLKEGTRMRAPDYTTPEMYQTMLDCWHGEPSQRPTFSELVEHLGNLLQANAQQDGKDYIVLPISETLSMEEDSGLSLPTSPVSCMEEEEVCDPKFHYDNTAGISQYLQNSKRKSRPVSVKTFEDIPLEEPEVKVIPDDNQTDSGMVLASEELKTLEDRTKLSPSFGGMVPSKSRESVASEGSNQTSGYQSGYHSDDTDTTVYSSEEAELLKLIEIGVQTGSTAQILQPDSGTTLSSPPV", "assay": "VEGFR-2 inhibitory assay"}, "S. aureus": {"tested_on": "S. aureus", "assay": "MIC by twofold serial dilution", "assay_type": "cell-based, Staphylococcus aureus (ATCC 12600)", "conditions": "Staphylococcus aureus; Gram-positive; read-out: Minimum inhibitory concentration (MIC), S. aureus", "protocol": "as §1\nas §1, with “The” for “Table 5 presents the”, “the tested” for “these”, “bacteria were” for “bacteria, utilizing ciprofloxacin as the reference drug,”, “2022]). See Appendix A for more details.” for “2022]).”\nas §2, §3, §4, §5, §6, §7"}, "in vitro": {"assay": "in vitro", "conditions": "human, MCF-10A mammary gland epithelial cells (normal cell line)"}}, "note": "Where two headings read alike, the source gives them in different places.", "data": [{"compound": "(E)-3-(2-((5-(3-(4-Methoxyphenyl)acryloyl)-4-methylthiazol-2-yl)thio) acetyl)-2H-chromen-2-one [Compound 11c]", "values": [{"measurement": "IC50", "setting": "HT-29 cells; read-out: Antiproliferative activity IC50 ± SEM, HT-29, colon cancer HT-29, MTT", "value": "0.057 ± 0.004", "unit": "µM"}, {"measurement": "Cell viability %", "setting": "MCF-10A cells", "value": 90, "unit": "%"}, {"measurement": "IC50", "setting": "Panc-1 cells; read-out: Antiproliferative activity IC50 ± SEM, Panc-1, pancreatic cancer Panc-1, MTT", "value": "0.054 ± 0.004", "unit": "µM"}, {"measurement": "IC50", "setting": "MCF-7 cells; read-out: Antiproliferative activity IC50 ± SEM, MCF-7, breast cancer MCF-7, MTT", "value": "0.056 ± 0.004", "unit": "µM"}, {"measurement": "IC50", "setting": "A-549 cells; read-out: Antiproliferative activity IC50 ± SEM, A-549, lung cancer A-549, MTT", "value": "0.052 ± 0.004", "unit": "µM"}, {"measurement": "Fold less potent than compound 11f (GI50)", "setting": "[1]", "value": "twofold"}, {"measurement": "GI50", "setting": "[1]; average IC50 over the four cancer cell lines", "value": 0.055, "unit": "µM"}, {"measurement": "RA (residual activity of the enzyme), E. Coli DNA gyrase", "setting": "E. coli DNA gyrase; at 1 μM of compound", "value": 68, "unit": "%"}]}, {"compound": "CO[C@@H]1[C@@H](OC(N)=O)[C@@H](O)[C@H](Oc2ccc3c(O)c(NC(=O)c4ccc(O)c(CC=C(C)C)c4)c(=O)oc3c2C)OC1(C)C", "note": "[Novobiocin]", "values": [{"measurement": "IC50", "setting": "[2]", "value": 26.7, "unit": "µM"}]}, {"compound": "Cc1nc(SCC(=O)c2cc3cc(Br)ccc3oc2=O)sc1C(=O)/C=C/c1ccc(Cl)cc1", "note": "[Compound 11e, (E)-6-Bromo-3-(2-((5-(3-(4-chlorophenyl)acryloyl)-4-methylthiazol-2-yl)thio)acetyl)-2H-chromen-2-one]", "values": [{"measurement": "Fold less efficient than ciprofloxacin (MIC), B. subtilis", "setting": "B. subtilis", "value": 2.2, "unit": "fold"}, {"measurement": "MIC", "setting": "B. subtilis; Bacillus subtilis, Gram-positive, read-out: Minimum inhibitory concentration (MIC), B. subtilis", "value": "0.022 ± 0.001", "unit": "µM"}, {"measurement": "IC50", "setting": "HT-29 cells; Homo sapiens, HT-29, read-out: Antiproliferative activity IC50 ± SEM, HT-29", "value": "0.042 ± 0.002", "unit": "µM"}, {"measurement": "IC50", "setting": "EGFR", "value": "0.089 ± 0.004", "unit": "µM"}, {"measurement": "MIC", "setting": "E. coli", "value": "0.048 ± 0.003", "unit": "µM"}, {"measurement": "MIC", "setting": "P. aeruginosa", "value": "0.053 ± 0.003", "unit": "µM"}, {"measurement": "IC50", "setting": "Panc-1 cells; Homo sapiens, PANC-1, read-out: Antiproliferative activity IC50 ± SEM, Panc-1", "value": "0.04 ± 0.002", "unit": "µM"}, {"measurement": "IC50", "setting": "VEGFR-2", "value": "4.9 ± 0.03", "unit": "µM"}, {"measurement": "MIC", "setting": "S. aureus", "value": "0.027 ± 0.001", "unit": "µM"}, {"measurement": "IC50", "setting": "MCF-7 cells; Homo sapiens, MCF7, read-out: Antiproliferative activity IC50 ± SEM, MCF-7", "value": "0.043 ± 0.002", "unit": "µM"}, {"measurement": "IC50", "setting": "A-549 cells; Homo sapiens, A549, read-out: Antiproliferative activity IC50 ± SEM, A-549", "value": "0.037 ± 0.002", "unit": "µM"}, {"measurement": "Fold less potent than compound 11f (GI50)", "setting": "[1]", "value": 1.5, "unit": "fold"}, {"measurement": "GI50", "setting": "[1]; Homo sapiens", "value": 0.041, "unit": "µM"}, {"measurement": "IC50", "setting": "E. coli DNA gyrase", "value": "0.19 ± 0.013", "unit": "µM"}, {"measurement": "viability at 96 h, 50 µM", "setting": "in vitro", "value": 91, "unit": "%"}]}]}
